{"source": "patent US20260315564A1", "about": "“THE USE OF TP3 (THYMOPENTIN ANALOG) BY INCREASING THE ACTIVITY AND NUMBER OF T-CELLS INVOLVED IN THE DEFENSE MECHANISM OF THE IMMUNE SYSTEM OF MAMMALS, FOR THE PREVENTION OR TREATMENT OF DISEASES TO EXTEND THE AVERAGE LIFESPAN” (priority 2023, published 2026)", "key": {"Anti-SRBC-Ab (IgM)": {"test_system": "Anti-SRBC-Ab (IgM)", "assay": "Anti-SRBC-Ab titer (IgM) in newborn rats after 9x treatment (hemagglutination)", "assay_type": "in vivo, Hannover Wistar rats (newborn)", "details": "9x (3x3 weeks/ip), n = 12, control 6.3 (TP5), 5.2 (TP3)", "protocol": "Rats (Hannover Wistar) were treated (i.p.) within 6-12 hours after birth. Treatments after birth in a single session or in another examination • on the 7th day after the first treatment; • another group was vaccinated 3 times a week after the first day of […]. treatment • in a subsequent group treated over three weeks (9× in total) (10-3,10-5,10-7//10-9, 10-11,10-12, 10-13 M/animal, i.p). • in the fourth test series, the animals were treated with TP fragments at 0, 1, 2, 4, or 5 days of age. The rats were unanimously immunized on the 14th day after birth (1% BVVT with 0.5 ml cell suspension, i.p.). Immune responses were measured after 7 days on day 21 of the experiment.\nRats (Hannover Wistar) were treated (i.p.) within 6-12 hours after birth. Treatments after birth in a single session or in another examination • on the 7th day after the first treatment; • another group was vaccinated 3 times a week after the first day of treatment. • in a subsequent group, the treatments took place over three weeks (9× in total) (10-3,10-5,10-7//10-9, 10-11,10-12,10-13 M/animal, i.p.). • in the fourth test series, the animals were treated with TP fragments at 0, 1, 2, 4, or 5 days of age. The rats were randomly immunized on the 14th day after birth (1% BVVT with 0.5 ml cell suspension, i.p.). Immune responses were measured after 7 days on day 21 of the experiment. 1.2. Determination of anti-BVVT Ab titers (from rat blood samples ex vivo) • with the haemagglutination method (Takátsy and Fürész, 1955) on 96-well plates (Flow). 50 ul of 0.9% NaCl solution was added to each well. The sera (50 μl) were diluted by half dilution in 12 steps, mixed with 25 pμl 2% BVVT cell suspension, and incubated (1 hour at 37 °C). The hemagglutination titers of the sera are determined. Values expressed in logarithmic values refer to total agglutination."}, "[1]": {"assay": "High-dose / long-term tolerability in animals", "assay_type": "in vivo", "details": "12 months of use, in words"}, "[2]": {"test_system": "tumour patients (metastatic melanoma)", "details": "26 studies, 2,736 patients, in words, cited from earlier work"}, "T cells": {"test_system": "T cells", "details": "Schlesinger et al. 1978, in words; cited from earlier work"}}, "note": "Marks after values point to notes of the source that are not given here. Residues, ends and D or L forms follow the SMILES beside them.", "data": [{"smiles": "CC(C)[C@H](NC(=O)[C@H](CC(=O)O)NC(=O)[C@H](CCCCN)NC(=O)[C@@H](N)CCCN=C(N)N)C(=O)N[C@@H](Cc1ccc(O)cc1)C(=O)O", "note": "[TP5] (H-RKDVY-OH)", "values": [{"measurement": "Anti-SRBC-Ab titer (IgM)", "setting": "Anti-SRBC-Ab (IgM); 10^-3 M/animal", "value": "7.3 2 log"}, {"measurement": "Anti-SRBC-Ab titer (IgM)", "setting": "Anti-SRBC-Ab (IgM); 10^-4 M/animal", "value": "8.2* 2 log"}, {"measurement": "Anti-SRBC-Ab titer (IgM)", "setting": "Anti-SRBC-Ab (IgM); 10^-5 M/animal", "value": "8.6* 2 log"}, {"measurement": "Anti-SRBC-Ab titer (IgM)", "setting": "Anti-SRBC-Ab (IgM); 10^-6 M/animal", "value": "7.5 2 log"}, {"measurement": "Anti-SRBC-Ab titer (IgM)", "setting": "Anti-SRBC-Ab (IgM); 10^-9 M/animal", "value": "7.2 2 log"}, {"measurement": "Anti-SRBC-Ab titer (IgM)", "setting": "Anti-SRBC-Ab (IgM); 10^-11 M/animal", "value": "10.7* 2 log"}, {"measurement": "Anti-SRBC-Ab titer (IgM)", "setting": "Anti-SRBC-Ab (IgM); 10^-13 M/animal", "value": "7.9* 2 log"}, {"measurement": "side effects", "setting": "[1]", "value": "did not cause any signs of side effects"}, {"measurement": "severe infections", "setting": "[2]; in parallel with radiation or chemotherapy", "value": "promising results in reducing severe infections"}, {"measurement": "number of survivors", "setting": "[2]", "value": "not significantly affected"}, {"measurement": "differentiation of T cells", "setting": "T cells", "value": "induces the differentiation of T cells"}]}]}
